Data: patent US12129221B2, “Difluoro phenyl amide RIP1 inhibitor” (SIRONAX LTD, priority 2018, dated 2024)
Entries after “also recorded” stand apart in the source; their conditions may differ. Where two headings read alike, the source gives them in different places.

Assays:
[1] = Hepatocyte stability, dog; type: in vitro ADME; details: dog, hepatocytes, read-out: Dog T1/2
Source text: (§1) Representative Metabolic Stability Data II, +, Extrapolated.

[2] = Hepatocyte stability, mini-pig; type: in vitro ADME; details: minipig, hepatocytes, read-out: mini-pig T1/2
Source text: as §1

[3] = Hepatocyte stability, mouse; type: in vitro ADME; details: mouse, hepatocytes, read-out: Mouse T1/2
Source text: as §1

Human RIP1 kinase = Human RIP1 kinase (Homo sapiens (Human), UniProt Q13546); assay: Human RIP1 kinase assay; type: biochemical; details: given as bound or range
Sequence of Human RIP1 kinase (Q13546 whole entry): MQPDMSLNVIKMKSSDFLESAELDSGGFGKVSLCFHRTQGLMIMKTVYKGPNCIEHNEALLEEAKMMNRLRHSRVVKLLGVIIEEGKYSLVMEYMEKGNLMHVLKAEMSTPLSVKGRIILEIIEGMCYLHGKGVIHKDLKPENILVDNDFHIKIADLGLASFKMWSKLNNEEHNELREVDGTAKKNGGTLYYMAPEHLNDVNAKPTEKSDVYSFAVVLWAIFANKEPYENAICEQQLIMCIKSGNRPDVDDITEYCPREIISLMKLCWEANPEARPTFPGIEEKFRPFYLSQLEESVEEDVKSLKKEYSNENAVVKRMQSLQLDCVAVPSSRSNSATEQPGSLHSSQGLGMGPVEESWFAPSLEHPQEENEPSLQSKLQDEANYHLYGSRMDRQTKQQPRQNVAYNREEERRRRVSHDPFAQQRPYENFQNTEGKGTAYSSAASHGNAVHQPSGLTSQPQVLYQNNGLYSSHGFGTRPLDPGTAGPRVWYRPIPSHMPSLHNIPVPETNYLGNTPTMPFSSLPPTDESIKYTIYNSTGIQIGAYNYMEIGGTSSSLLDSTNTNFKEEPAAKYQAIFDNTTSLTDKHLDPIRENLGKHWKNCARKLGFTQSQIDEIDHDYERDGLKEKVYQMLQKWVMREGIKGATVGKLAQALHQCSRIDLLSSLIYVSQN
Source text: (§2) Representative IC50 of hRIP1 Kinase Assay Correlated with Our IC50 of Cell Necrosis Assay: […]

[4] = Liver microsome stability, monkey; type: in vitro ADME; details: monkey, liver microsomes
Source text: (§3) Representative Metabolic Stability Data I; +, Extrapolated.

PK in mouse = details: in vivo
[5] = Liver microsome stability, dog; type: in vitro ADME; details: dog, liver microsomes
Source text: as §3

[6] = Hepatocyte stability, human; type: in vitro ADME; details: human, hepatocytes, read-out: Human T1/2
Source text: as §1

[7] = Liver microsome stability, rat; type: in vitro ADME; details: liver microsomes
Source text: as §3

[8] = Hepatocyte stability, monkey; type: in vitro ADME; details: monkey, hepatocytes, read-out: Monkey T1/2
Source text: as §1

necrosis = assay: Necrosis inhibitory activity (cell necrosis / cell viability assay); type: cell-based
Source text: Necrosis Inhibitory Activity
as §2

[9] = Hepatocyte stability, rat; type: in vitro ADME; details: rat, hepatocytes, read-out: Rat T1/2
Source text: as §1

[10] = tested on: TNF-α-induced SIRS in mice; assay: Mouse SIRS model (TNF-α-induced mortality); type: in vivo, C57BI/6J mice; details: TNF-α intravenously 2 minutes after
Description: Effect on Mouse SIRS Model Sepsis preceded by systemic inflammatory response syndrome (SIRS), is a major cause of death in critically ill patients. TNF-α functions as a key mediator in SIRS pathogenesis by the induction of RIP1-RIP3 mediated necroptosis of the liver.
SIR1-365 was administrated as a single dose by oral gavage at 3 different doses: 1, 3, and 10 mg/kg to C57BI/6J mice. TNF-α was delivered intravenously 2 minutes after SIR1-365 administration. 87.5% (7 of 8) mice in the control group (given vehicle) died within 36 hours, whereas 50% (4 of 8) mice given SIR1-365 at 1 mg/kg and 25% (2 of 8) mice given SIR1-365 at 3 mg/kg died in the same period.

HT-29 = assay: EC50 in HT-29; type: cell-based; details: Homo sapiens
[11] = Liver microsome stability, human; type: in vitro ADME; details: liver microsomes, liver microsome stability, read-out: Human T1/2
Source text: as §3

PK in rat = assay: PK in rat; set-up: species or system SD rat; details: Sprague-Dawley, in vivo; for half-life / bioavailability: rat
Source text: Representative PK Date of Pro-Drug Compounds

ferroptosis = assay: Ferroptosis inhibitor activity; type: cell-based; details: 1 uM threshold activity extrapolated
Source text: Ferroptosis Inhibitor Activity 1 Um Threshold Activity Extrapolated

PK in dog = details: in vivo
[12] = Hepatocyte Stability, comparison table
[13] = po, 60 mg/kg, SD rat, dose 60 mg/Kg micropower

## CCC(C)(C)C(=O)N(O)Cc1cc(F)cc(F)c1 [Compound 13, N-(3,5-difluorobenzyl)-N-hydroxy-2,2-dimethylbutanamide]
[1]; [12]
  half-life: 13 min
[1]; Hepatocyte stability
  half-life: 12.8 min
[2]
  half-life: 21.2 min
[3]; [12]
  half-life: 20 min
[3]; Hepatocyte stability
  half-life: 20.1 min
Human RIP1 kinase
  IC50: < 100 nM
[4]; comparison table with WO2016/101885 compounds, read-out: Monkey Liver Microsome T1/2
  half-life: 5 min
[4]; liver microsome stability, read-out: Monkey T1/2
  half-life: 4.72 min
PK in mouse; IV 2 mg/kg
  AUC(0-inf): 489 ng·h/mL
  clearance: 68.2 mL/min/kg
  half-life: 17.4 min
PK in mouse; IV 2 mg/kg, read-out: Vdss
  Vd: 1.7 L/kg
PK in mouse; PO 10 mg/kg
  AUC(0-inf): 823 ng·h/mL
  Cmax: 1000 ng/mL
  bioavailability: 33.7%
  half-life: 28.8 min
PK in mouse; PO 40 mg/kg
  AUC(0-inf): 5410 ng·h/mL
  Cmax: 5420 ng/mL
  bioavailability: 55.4%
  half-life: 49.8 min
[5]; comparison table with WO2016/101885 compounds, read-out: Dog Liver Microsome T1/2
  half-life: 2 min
[5]; liver microsome stability, read-out: Dog T1/2
  half-life: 2.34 min
[6]; [12]
  half-life: 152 min
[6]; Hepatocyte stability
  half-life: 152 min
[7]; comparison table with WO2016/101885 compounds, read-out: Rat Liver Microsome T1/2
  half-life: 20 min
[7]; liver microsome stability, read-out: Rat T1/2
  half-life: 19.9 min
[8]; [12]
  half-life: 25 min
[8]; Hepatocyte stability
  half-life: 24.9 min
necrosis; Necrosis Inhibitory Activity, given as range, read-out: EC50
  EC50: 1 to 1000 nM
necrosis; cell necrosis assay, given as bound or range, read-out: Cell viability assay, EC50
  EC50: < 100 nM
[9]; [12]
  half-life: 28 min
[9]; Hepatocyte stability
  half-life: 28 min
[10]; single oral gavage dose 1 mg/kg
  mice died within 36 hours: 50%
[10]; single oral gavage dose 3 mg/kg
  mice died within 36 hours: 25%
[10]; single oral gavage dose 10 mg/kg, listed as SIR1-365
  mortality caused by SIRS: completely prevented mortality; also recorded: complete prevention
HT-29
  EC50: 28 nM
[11]
  half-life: 228 min
PK in rat; Rat, IV 2 mg/kg
  AUC(0-inf): 540 ng·h/mL
  clearance: 61.7 mL/min/kg
PK in rat; Rat, IV 2 mg/kg, read-out: Vdss
  Vd: 1.9 L/kg
PK in rat; Rat, PO 20 mg/kg
  AUC(0-inf): 1580 ng·h/mL
  Cmax: 1570 ng/mL
PK in rat; Rat, PO 60 mg/kg
  AUC(0-inf): 7520 ng·h/mL
  Cmax: 4910 ng/mL
PK in rat; SD rat, PO, dose 60 mg/Kg micropower
  AUC: 7520 ng·h/mL
PK in rat; iv, 2 mg/kg, IV 2 mg/kg
  half-life: 35.4 min
PK in rat; po, 20 mg/kg, PO 20 mg/kg
  bioavailability: 39.4%
  half-life: 84 min
PK in rat; po, 60 mg/kg, PO 60 mg/kg
  bioavailability: 62.8%
  half-life: 72 min
PK in rat; [13]
  bioavailability: 62.8%
  half-life: 70.2 min
ferroptosis
  EC50: 1000 to 10000 nM
PK in dog; IV 2 mg/kg
  AUC(0-inf): 1840 ng·h/mL
  clearance: 18.5 mL/min/kg
  half-life: 61.2 min
PK in dog; IV 2 mg/kg, read-out: Vdss
  Vd: 0.73 L/kg
PK in dog; PO 10 mg/kg
  AUC(0-inf): 1320 ng·h/mL
  Cmax: 981 ng/mL
  bioavailability: 14.9%
  half-life: 429 min
PK in dog; PO 60 mg/kg
  AUC(0-inf): 2050 ng·h/mL
  Cmax: 938 ng/mL
  bioavailability: 4.06%
  half-life: 339 min
PK in dog; PO 150 mg/kg
  AUC(0-inf): 7230 ng·h/mL
  Cmax: 2440 ng/mL
  bioavailability: 5.33%
  half-life: 714 min
